What was measured:
Format in all cases: in vivo
soybean (Glycine max) [1] = test: Test A1 postemergence, soybean; settings: Postemergence
How it was run: (§1)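 Pre: seeds in loam/sand blend, directed soil spray. Post: potted plants, same soil, 2–10 cm, 1–2 leaf stage. Chemicals in non-phytotoxic solvent + surfactant for both.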

[2] = tested on: Pigweed, Palmer (palmer amaranth, palmer pigweed, Amaranthus palmeri); test: Test A1 postemergence, Pigweed, Palmer; settings: Postemergence
How it was run: (§2)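 Postemergence species (ragweed, Palmer pigweed, wild oat) were sprayed at one- to two-leaf stage, 2 to 10 cm tall. Corn was treated preemergence by directed soil spray. Both used a loam soil/sand blend and compounds in a non-phytotoxic solvent mixture with surfactant.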

[3] = tested on: galium (catchweed bedstraw, Galium aparine); test: Test A1 postemergence, galium; settings: Postemergence
How it was run: as §1

[4] = tested on: Foxtail, Giant (giant foxtail, Setaria faberi); test: Test A1 postemergence, Foxtail, Giant; settings: Postemergence
How it was run: as §1

[5] = tested on: Ryegrass, Italian (Italian ryegrass, Lolium multiflorum); test: Test A1 preemergence, Ryegrass, Italian
How it was run: (§3)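 Both timings started from seed in a loam-sand blend. Preemergence pots got a directed soil application immediately; postemergence pots were sprayed when seedlings had one or two leaves and stood 2–10 cm. Each compound was prepared in a non-phytotoxic solvent plus surfactant.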

[6] = tested on: blackgrass (Alopecurus myosuroides); test: Test A1 preemergence, blackgrass
How it was run: as §3

[7] = tested on: barnyardgrass (Echinochloa crus-galli); test: Test B1 flooded paddy test, barnyardgrass; settings: 250 g ai/ha, Flood, applied to paddy water, 2-leaf stage, visually evaluated after 10 to 14 days
Description: (§4) A dash (-) response means no test result.

soybean (Glycine max) [8] = test: Test A1 preemergence, soybean
How it was run: as §3

[9] = tested on: goosegrass (Eleusine indica); test: Test A1 postemergence, goosegrass; settings: Postemergence
How it was run: as §1

kochia (Bassia scoparia) [10] = test: Test A1 postemergence, kochia; settings: Postemergence
How it was run: as §1

[11] = tested on: goosegrass (Eleusine indica); test: Test A1 preemergence, goosegrass
How it was run: as §3

[12] = tested on: Oat, Wild (wild oat, Avena fatua); test: Test A1 preemergence, Oat, Wild
How it was run: as §3

[13] = tested on: ducksalad (Heteranthera limosa); test: Test B1 flooded paddy test, ducksalad; settings: 250 g ai/ha, Flood, applied to paddy water, 2-leaf stage, visually evaluated after 10 to 14 days
Description: as §4

[14] = tested on: Pigweed, Palmer (palmer amaranth, palmer pigweed, Amaranthus palmeri); test: Test A1 preemergence, Pigweed, Palmer
How it was run: as §3

rice (Oryza sativa) = test: Test B1 flooded paddy test, rice; settings: 250 g ai/ha, Flood, applied to paddy water, 2-leaf stage, visually evaluated after 10 to 14 days
Description: as §4

[15] = tested on: horseweed (Erigeron canadensis); test: Test A1 postemergence, horseweed; settings: Postemergence
How it was run: as §1

[16] = tested on: Ryegrass, Italian (Italian ryegrass, Lolium multiflorum); test: Test A1 postemergence, Ryegrass, Italian; settings: Postemergence
How it was run: as §1

corn (Zea mays) [17] = test: Test A1 preemergence, corn
How it was run: as §2

[18] = tested on: ragweed (common ragweed, Ambrosia artemisiifolia); test: Test A1 postemergence, ragweed; settings: Postemergence
How it was run: as §2

[19] = tested on: blackgrass (Alopecurus myosuroides); test: Test A1 postemergence, blackgrass; settings: Postemergence, 0 to 100 scale (0 no effect, 100 complete control)
How it was run: as §1

kochia (Bassia scoparia) [20] = test: Test A1 preemergence, kochia
How it was run: as §3

[21] = tested on: ragweed (common ragweed, Ambrosia artemisiifolia); test: Test A1 preemergence, ragweed
How it was run: as §3

[22] = tested on: Foxtail, Giant (giant foxtail, Setaria faberi); test: Test A1 preemergence, Foxtail, Giant
How it was run: as §3

corn (Zea mays) [23] = test: Test A1 postemergence, corn; settings: Postemergence
How it was run: as §3

[24] = tested on: wheat (Triticum aestivum); test: Test A1 postemergence, wheat; settings: Postemergence
How it was run: as §1

[25] = tested on: Oat, Wild (wild oat, Avena fatua); test: Test A1 postemergence, Oat, Wild; settings: Postemergence
How it was run: as §2

[26] = tested on: wheat (Triticum aestivum); test: Test A1 preemergence, wheat
How it was run: as §3

[27] = 31 g ai/ha, 0 to 100 scale (0 no effect, 100 complete control), 10 days
[28] = 31 g ai/ha, 0 to 100 scale (0 no effect, 100 complete control)
[29] = 125 g ai/ha, 0 to 100 scale, 0 no effect, 100 complete control

Q: For `Cc1c(NS(=O)(=O)C(F)(F)F)cc(C2=NOC3CCCC23)c(C)c1C` (stereo not drawn) [Compound 335], which “Plant response rating, Soybean” value (soybean (Glycine max) [1]; [27]) is on record?
A: 0

Q: And the “Plant response rating, Soybean” value (soybean (Glycine max) [1]; 125 g ai/ha, 0 to 100 scale)?
A: 30

Q: What about the “Plant response rating, Pigweed, Palmer” value [2, 27] of the same compound?
A: 20

Q: What about the “Plant response rating, Pigweed, Palmer” value ([2]; 125 g ai/ha, 0 to 100 scale) of the same compound?
A: 30

Q: And the “Plant response rating, Galium” value [3, 27]?
A: 50

Q: And the “Plant response rating, Galium” value ([3]; 125 g ai/ha, 0 to 100 scale)?
A: 80

Q: What about the “Plant response rating, Foxtail, Giant” value [4, 27] of the same compound?
A: 0

Q: And the “Plant response rating, Foxtail, Giant” value ([4]; 125 g ai/ha, 0 to 100 scale)?
A: 0

Q: And the “Plant response rating, Ryegrass, Italian” value [5, 28]?
A: 0

Q: And the “Plant response rating, Ryegrass, Italian” value [5, 29]?
A: 60

Q: And the “Plant response rating, Blackgrass” value [6, 28]?
A: 0

Q: And the “Plant response rating, Blackgrass” value [6, 29]?
A: 0

Q: And the “Plant response rating, Barnyardgrass (0 to 100 scale, 0 is no effect, 100 is complete control)” value [7]?
A: 95

Q: What about the “Plant response rating, Soybean” value (soybean (Glycine max) [8]; [28]) of the same compound?
A: 30

Q: And the “Plant response rating, Soybean” value (soybean (Glycine max) [8]; [29])?
A: 40

Q: And the “Plant response rating, Goosegrass” value [9, 27]?
A: 0

Q: What about the “Plant response rating, Goosegrass” value ([9]; 125 g ai/ha, 0 to 100 scale) of the same compound?
A: 10

Q: And the “Plant response rating, Kochia” value (kochia (Bassia scoparia) [10]; [27])?
A: 10

Q: What about the “Plant response rating, Kochia” value (kochia (Bassia scoparia) [10]; 125 g ai/ha, 0 to 100 scale) of the same compound?
A: 60

Q: What about the “Plant response rating, Goosegrass” value [11, 28] of the same compound?
A: 30

Q: And the “Plant response rating, Goosegrass” value [11, 29]?
A: 70

Q: And the “Plant response rating, Oat, Wild” value [12, 28]?
A: 0

Q: And the “Plant response rating, Oat, Wild” value [12, 29]?
A: 30

Q: And the “Plant response rating, Ducksalad (0 to 100 scale, 0 is no effect, 100 is complete control)” value [13]?
A: 70

Q: And the “Plant response rating, Pigweed, Palmer” value [14, 28]?
A: 100

Q: And the “Plant response rating, Pigweed, Palmer” value [14, 29]?
A: 100

Q: What about the “Plant response rating, Rice (0 to 100 scale, 0 is no effect, 100 is complete control)” value (rice (Oryza sativa)) of the same compound?
A: 45

Q: What about the “Plant response rating, Horseweed” value [15, 27] of the same compound?
A: 40

Q: What about the “Plant response rating, Horseweed” value ([15]; 125 g ai/ha, 0 to 100 scale) of the same compound?
A: 70

Q: And the “Plant response rating, Ryegrass, Italian” value [16, 27]?
A: 0

Q: What about the “Plant response rating, Ryegrass, Italian” value ([16]; 125 g ai/ha, 0 to 100 scale) of the same compound?
A: 30

Q: And the “Plant response rating, Corn” value (corn (Zea mays) [17]; [28])?
A: 0

Q: What about the “Plant response rating, Corn” value (corn (Zea mays) [17]; [29]) of the same compound?
A: 60

Q: What about the “Plant response rating, Ragweed” value [18, 27] of the same compound?
A: 50

Q: What about the “Plant response rating, Ragweed” value ([18]; 125 g ai/ha, 0 to 100 scale) of the same compound?
A: 80

Q: What about the “Plant response rating, Blackgrass” value ([19]; 31 g ai/ha, 10 days) of the same compound?
A: 0

Q: What about the “Plant response rating, Blackgrass” value ([19]; 125 g ai/ha) of the same compound?
A: 10

Q: And the “Plant response rating, Kochia” value (kochia (Bassia scoparia) [20]; [28])?
A: 20

Q: What about the “Plant response rating, Kochia” value (kochia (Bassia scoparia) [20]; [29]) of the same compound?
A: 60

Q: What about the “Plant response rating, Ragweed” value [21, 28] of the same compound?
A: 20

Q: And the “Plant response rating, Ragweed” value [21, 29]?
A: 90

Q: And the “Plant response rating, Foxtail, Giant” value [22, 28]?
A: 60

Q: What about the “Plant response rating, Foxtail, Giant” value [22, 29] of the same compound?
A: 100

Q: And the “Plant response rating, Corn” value (corn (Zea mays) [23]; [27])?
A: 0

Q: And the “Plant response rating, Corn” value (corn (Zea mays) [23]; 125 g ai/ha, 0 to 100 scale)?
A: 0

Q: What about the “Plant response rating, Wheat” value [24, 27] of the same compound?
A: 0

Q: What about the “Plant response rating, Wheat” value ([24]; 125 g ai/ha, 0 to 100 scale) of the same compound?
A: 0

Q: And the “Plant response rating, Oat, Wild” value [25, 27]?
A: 0

Q: And the “Plant response rating, Oat, Wild” value ([25]; 125 g ai/ha, 0 to 100 scale)?
A: 0

Q: What about the “Plant response rating, Wheat” value [26, 28] of the same compound?
A: 0

Q: What about the “Plant response rating, Wheat” value [26, 29] of the same compound?
A: 0

Q: What does the source list for `Cc1cc(C)c(N(COC(=O)C(C)(C)C)S(=O)(=O)C(F)(F)F)cc1C(=O)N1CCC(C)CC1` [Compound 353]?
A: Plant response rating, Soybean (soybean (Glycine max) [1]; [27]): 50; Plant response rating, Soybean (soybean (Glycine max) [1]; 125 g ai/ha, 0 to 100 scale): 60; Plant response rating, Pigweed, Palmer [2, 27]: 0; Plant response rating, Pigweed, Palmer ([2]; 125 g ai/ha, 0 to 100 scale): 30; Plant response rating, Galium [3, 27]: 50; Plant response rating, Galium ([3]; 125 g ai/ha, 0 to 100 scale): 70; Plant response rating, Foxtail, Giant [4, 27]: 20; Plant response rating, Foxtail, Giant ([4]; 125 g ai/ha, 0 to 100 scale): 50; Plant response rating, Ryegrass, Italian [5, 28]: 0; Plant response rating, Ryegrass, Italian [5, 29]: 0; Plant response rating, Blackgrass [6, 28]: 0; Plant response rating, Blackgrass [6, 29]: 0; Plant response rating, Barnyardgrass (0 to 100 scale, 0 is no effect, 100 is complete control) [7]: 90; Plant response rating, Soybean (soybean (Glycine max) [8]; [28]): 10; Plant response rating, Soybean (soybean (Glycine max) [8]; [29]): 30; Plant response rating, Goosegrass [9, 27]: 0; Plant response rating, Goosegrass ([9]; 125 g ai/ha, 0 to 100 scale): 30; Plant response rating, Kochia (kochia (Bassia scoparia) [10]; [27]): 10; Plant response rating, Kochia (kochia (Bassia scoparia) [10]; 125 g ai/ha, 0 to 100 scale): 50; Plant response rating, Goosegrass [11, 28]: 20; Plant response rating, Goosegrass [11, 29]: 70; Plant response rating, Oat, Wild [12, 28]: 0; Plant response rating, Oat, Wild [12, 29]: 0; Plant response rating, Ducksalad (0 to 100 scale, 0 is no effect, 100 is complete control) [13]: 65; Plant response rating, Pigweed, Palmer [14, 28]: 30; Plant response rating, Pigweed, Palmer [14, 29]: 40; Plant response rating, Rice (0 to 100 scale, 0 is no effect, 100 is complete control) (rice (Oryza sativa)): 20; Plant response rating, Horseweed [15, 27]: 70; Plant response rating, Horseweed ([15]; 125 g ai/ha, 0 to 100 scale): 100; Plant response rating, Ryegrass, Italian [16, 27]: 0; Plant response rating, Ryegrass, Italian ([16]; 125 g ai/ha, 0 to 100 scale): 0; Plant response rating, Corn (corn (Zea mays) [17]; [28]): 10; Plant response rating, Corn (corn (Zea mays) [17]; [29]): 30; Plant response rating, Ragweed [18, 27]: 20; Plant response rating, Ragweed ([18]; 125 g ai/ha, 0 to 100 scale): 60; Plant response rating, Blackgrass ([19]; 31 g ai/ha, 10 days): 0; Plant response rating, Blackgrass ([19]; 125 g ai/ha): 0; Plant response rating, Kochia (kochia (Bassia scoparia) [20]; [28]): 0; Plant response rating, Kochia (kochia (Bassia scoparia) [20]; [29]): 20; Plant response rating, Ragweed [21, 28]: 20; Plant response rating, Ragweed [21, 29]: 20; Plant response rating, Foxtail, Giant [22, 28]: 10; Plant response rating, Foxtail, Giant [22, 29]: 80; Plant response rating, Corn (corn (Zea mays) [23]; [27]): 0; Plant response rating, Corn (corn (Zea mays) [23]; 125 g ai/ha, 0 to 100 scale): 0; Plant response rating, Wheat [24, 27]: 20; Plant response rating, Wheat ([24]; 125 g ai/ha, 0 to 100 scale): 50; Plant response rating, Oat, Wild [25, 27]: 0; Plant response rating, Oat, Wild ([25]; 125 g ai/ha, 0 to 100 scale): 10; Plant response rating, Wheat [26, 28]: 0; Plant response rating, Wheat [26, 29]: 0

Reference: patent US20230278972A1, “SUBSTITUTED HALOALKYL SULFONANILIDE HERBICIDES” (FMC Corporation, priority 2020, published 2023)
